Laboratory results reported in PubChem BioAssay AID1117337 (Cheminformatics & Chemogenomics Research Group (CCRG), …, 2015).
Active and inactive are the calls of the source. The rule behind the calls is not given here. Where a SMILES comes first, the peptide text is derived from it.

system: ADSC/ECFC co-culture, VEGF-stimulated, CD31 tube area; assay: ADSC/ECFC co-culture angiogenesis inhibition – imaging, VEGF stimulation, CD31 staining, tube area, IC50, dose response (AID 1117337)

Row | Compound | IC50
1 | CC[C@@H]([C@H](C)O)n1ncn(-c2ccc(N3CCN(c4ccc(OC[C@@H]5CO[C@@](Cn6cncn6)(c6ccc(F)cc6F)C5)cc4)CC3)cc2)c1=O | 6.46 µM (inactive)
2 | COC1=C(OC)C(=O)C(CCCCCCCCCCO)=C(C)C1=O | > 10 µM (inactive)
3 | COc1ccc2cc3[n+](cc2c1OC)CCc1cc2c(cc1-3)OCO2 | 2.68 µM
4 | CC(C)Cn1cnc2c1c(=O)n(C)c(=O)n2C | > 10 µM (inactive)
5 | Cc1c(C)c2c(c(C)c1OC(=O)CCC(=O)O)CC[C@@](C)(CCC[C@H](C)CCC[C@H](C)CCCC(C)C)O2 | > 10 µM (inactive)
6 | CC(C)=CCCC(C)=CCCC(C)=CCCC=C(C)CCC=C(C)CCC=C(C)C | > 10 µM (inactive)
7 | Cc1cc(-c2ccc(N=Nc3c(S(=O)(=O)O)cc4cc(S(=O)(=O)O)cc(N)c4c3O)c(C)c2)ccc1N=Nc1c(S(=O)(=O)O)cc2cc(S(=O)(=O)O)cc(N)c2c1O | > 10 µM (inactive)
8 | O=C1c2ccccc2C(=O)C1C(=O)C(c1ccccc1)c1ccccc1 | > 10 µM (inactive)
9 | C[C@@H]1C[C@H]2[C@@H]3CCC4=CC(=O)C=C[C@]4(C)[C@@]3(Cl)[C@@H](O)C[C@]2(C)[C@@]1(OC(=O)c1ccco1)C(=O)CCl | 4.99 µM
10 | CCCCCCCC(=O)OCC(COC(=O)CCCCCCC)OC(=O)CCCCCCC | > 10 µM (inactive)
11 | CN(Cc1cnc2nc(N)nc(N)c2n1)c1ccc(C(=O)N[C@@H](CCC(=O)O)C(=O)O)cc1 | > 10 µM (inactive)
12 | CN(C)C(=O)Oc1cccc([N+](C)(C)C)c1 | > 10 µM (inactive)
13 | O[C@@H](CNC[C@H](O)[C@H]1CCc2cc(F)ccc2O1)[C@@H]1CCc2cc(F)ccc2O1 | > 10 µM (inactive)
14 | Cn1ccc2cc3c(cc21)CCN3C(=O)Nc1cccnc1 | > 10 µM (inactive)
15 | CCc1cccc(N(C)C(N)=Nc2cccc3ccccc23)c1 | > 10 µM (inactive)
16 | O=C(Nc1ccc([N+](=O)[O-])cc1Cl)c1cc(Cl)ccc1O | 0.112 µM
17 | CC(=O)c1ccc(OCC(=O)N2CCCCC2)cc1 | > 10 µM (inactive)
18 | CCOC(=O)[C@H](CCc1ccccc1)N[C@@H](C)C(=O)N1C(=O)N(C)C[C@H]1C(=O)O | > 10 µM (inactive)
19 | O=c1[nH]c(=O)n([C@H]2C[C@H](O)[C@@H](CO)O2)cc1Br | 3.85 µM
20 | CCCCCCCCCCOCC(O)CN (stereo not given) | 6.55 µM (inactive)
21 | COc1cc(-c2ccc(=O)[nH]n2)ccc1OC(F)F | 1.22 µM
22 | [O-][n+]1ccccc1SSc1cccc[n+]1[O-] | 0.719 µM
23 | COC(=O)Nc1nc2ccc(C(=O)c3cccs3)cc2[nH]1 | 0.102 µM

Row | Compound | IC50
24 | CO[C@H]1O[C@@H]2O[C@@]3(C)CC[C@H]4[C@H](C)CC[C@@H]([C@@H]1C)[C@@]24OO3 | > 10 µM (inactive)
25 | CCN(CC)CCNC(=O)c1c(C)[nH]c(/C=C2\C(=O)Nc3ccc(F)cc32)c1C | 0.0254 µM
26 | C[C@H](O)CN(C)C | > 10 µM (inactive)
27 | O=c1c(-c2ccc(O)cc2)coc2cc(O)cc(O)c12 | > 10 µM (inactive)
28 | CCC(C(=O)OCCOCCN(CC)CC)c1ccccc1 (stereo not given) | > 10 µM (inactive)
29 | Cc1nc2ccc(CN(C)c3ccc(C(=O)N[C@@H](CCC(=O)O)C(=O)O)s3)cc2c(=O)[nH]1 | 0.354 µM
30 | COc1ccc(/C=C/C(=O)c2ccc(OC)cc2OC)cc1 | 6.66 µM (inactive)
31 | CCCCCCCC[N+](C)(C)CCCCCCCC | 1.39 µM
32 | CN1CCN(CCCN2c3ccccc3Sc3ccc(C(F)(F)F)cc32)CC1 | > 10 µM (inactive)
33 | COc1cc([C@@H]2c3cc4c(cc3[C@H](O)[C@H]3COC(=O)[C@H]23)OCO4)cc(OC)c1OC | 0.0081 µM
34 | O=C(NC1CCN(CCc2c[nH]c3ccccc23)CC1)c1ccccc1 | > 10 µM (inactive)
35 | CC(=O)[C@]1(O)Cc2c(O)c3c(c(O)c2[C@@H](O[C@H]2C[C@H](N)[C@H](O)[C@H](C)O2)C1)C(=O)c1ccccc1C3=O | 0.0208 µM
36 | CCC1C(=O)OCC1Cc1cncn1C (stereo not given) | > 10 µM (inactive)
37 | Cc1cc(=O)c2c(O)c3c(O)cc(=O)c4c3c3c(cc(O)c1c23)C(C)(C)C=4O | 0.101 µM
38 | CN(C)CCCN1c2ccccc2Sc2ccc(Cl)cc21 | > 10 µM (inactive)
39 | CN1CCN(CCCN2c3ccccc3Sc3ccc(S(=O)(=O)N(C)C)cc32)CC1 | > 10 µM (inactive)
40 | CCCCc1oc2ccc(NS(C)(=O)=O)cc2c1C(=O)c1ccc(OCCCN(CCCC)CCCC)cc1 | 2.75 µM
41 | O=C(Nc1ccc([N+](=O)[O-])cc1)Nc1ccc([N+](=O)[O-])cc1 | > 10 µM (inactive)
42 | CSc1ccc2c(c1)C(N1CCN(C)CC1)Cc1ccccc1S2 (stereo not given) | > 10 µM (inactive)
43 | CO[C@@H]1[C@@H](OC)[C@H](C)[C@@](O)(CC(=O)O)O[C@H]1[C@H](C)[C@H]1O[C@@]2(CC[C@@](C)([C@H]3CC[C@@](C)([C@@H]4O[C@@H]([C@H]5O[C@](C)(O)[C@H](C)C[C@@H]5C)C[C@@H]4OC4C[C@H](OC)[C@@H](OC)[C@H](C)O4)O3)O2)C[C@H](O)[C@H]1C (stereo not given in full) | 0.252 µM
44 | CC(C)(C)c1ccc(C(O)CCCN2CCC(C(O)(c3ccccc3)c3ccccc3)CC2)cc1 (stereo not given) | 3.25 µM
45 | CC(C)C[C@H](NC(=O)[C@H](CCc1ccccc1)NC(=O)CN1CCOCC1)C(=O)N[C@@H](Cc1ccccc1)C(=O)N[C@@H](CC(C)C)C(=O)[C@@]1(C)CO1 | 0.0204 µM
46 | O=[N+]([O-])c1cc(I)c(O)c(I)c1 | > 10 µM (inactive)

Row | Compound | IC50
47 | CCCCCN=C(N)N/N=C/c1c[nH]c2ccc(OC)cc12 | 3.13 µM
48 | CC1CCC(C(C)C)C(OC(=O)c2ccccc2O)C1 (stereo not given) | > 10 µM (inactive)
49 | Cc1cc(O)c2c(O)c3c(O)cccc3cc2c1 | > 10 µM (inactive)
50 | Cc1ccc(O)cc1 | > 10 µM (inactive)
51 | O=C(Nc1ccc(Oc2ccc(Cl)cc2)c(Cl)c1)c1cc(I)cc(I)c1O | > 10 µM (inactive)
52 | CCCCC(CC)COC(=O)CC(C(=O)OCC(CC)CCCC)S(=O)(=O)O (stereo not given) | > 10 µM (inactive)
53 | COc1cc(NCc2ccc3nc(N)nc(N)c3c2C)cc(OC)c1OC | 4.42 µM
54 | CCCCCCC[N+](CC)(CC)CCCCc1ccc(Cl)cc1 | 6.34 µM (inactive)
55 | CCCOc1ccc2nc(NC(=O)OC)[nH]c2c1 | 0.328 µM
56 | CCCOC(=O)c1cc(O)c(O)c(O)c1 | > 10 µM (inactive)
57 | COC(=O)N[C@H](C(=O)N[C@@H](Cc1ccccc1)[C@@H](O)CN(Cc1ccc(-c2ccccn2)cc1)NC(=O)[C@@H](NC(=O)OC)C(C)(C)C)C(C)(C)C | > 10 µM (inactive)
58 | COc1cccc2c1C(=O)c1c(O)c3c(c(O)c1C2=O)C[C@@](O)(C(=O)CO)C[C@@H]3O[C@H]1C[C@H](N)[C@H](O)[C@H](C)O1 | 0.0429 µM
59 | Cc1nc2ccccc2n1Cc1ccc(Cl)cc1 | 7.38 µM (inactive)
60 | O=C(O)C1(C(=O)O)CCC1.[NH2-].[NH2-].[Pt+2] | > 10 µM (inactive)
61 | Cc1cc(O)c2ccccc2c1O | 4.89 µM
62 | CC(C(O)c1ccccc1)N(C)C/C=C/c1ccccc1 (stereo not given) | > 10 µM (inactive)
63 | CCCCCCCCCCCCNCCNCCNCC(=O)O | 6.04 µM (inactive)
64 | CC(=O)Nc1ccn(C2COC(COC(=O)c3ccccc3)O2)c(=O)n1 (stereo not given) | 2.33 µM
65 | Clc1ccc(C(Cn2ccnc2)OCc2ccsc2Cl)c(Cl)c1 (stereo not given) | 5 µM
66 | COc1ccc(/C=N/NC(=O)c2ccncc2)cc1OC | > 10 µM (inactive)
67 | Cc1ccccc1C(=O)Nc1ccc(C(=O)N2CCCC(N(C)C)c3ccccc32)cc1 (stereo not given) | > 10 µM (inactive)
68 | NCCNc1ccc(NCCN)c2c1C(=O)c1ccncc1C2=O | 0.0465 µM
69 | CCOc1ccc2nc3cc(N)ccc3c(N)c2c1 | 4.94 µM

Row | Compound | IC50
70 | CCCCCCCCCCCCCCCC[N+](C)(C)Cc1ccccc1 | 2.53 µM
71 | CCc1oc2ccccc2c1C(=O)c1cc(Br)c(O)c(Br)c1 | > 10 µM (inactive)
72 | Cc1ccc(Nc2c(F)cccc2Cl)c(CC(=O)O)c1 | > 10 µM (inactive)
73 | Oc1ccc(Cl)cc1Sc1cc(Cl)ccc1O | 3.53 µM
74 | COc1cccc2c1C(=O)c1c(O)c3c(c(O)c1C2=O)C[C@@](O)(C(=O)CO)C[C@@H]3O[C@H]1C[C@H](N)[C@H](O[C@@H]2CCCCO2)[C@H](C)O1 | 0.0063 µM
75 | CC(=O)O[C@@]12CO[C@@H]1C[C@H](O)[C@@]1(C)C(=O)[C@H](O)C3=C(C)[C@@H](OC(=O)[C@H](O)[C@@H](NC(=O)OC(C)(C)C)c4ccccc4)C[C@@](O)([C@@H](OC(=O)c4ccccc4)[C@H]21)C3(C)C | 0.001 µM
76 | CC(C)=CCNc1ncnc2c1ncn2[C@@H]1O[C@H](CO)[C@@H](O)[C@H]1O | 2.66 µM
77 | CC(=O)N(O)CCCCCNC(=O)CCC(=O)N(O)CCCCCNC(=O)CCC(=O)N(O)CCCCCN | 4.53 µM
78 | CCC1=C[C@@H]2CN(C1)Cc1c([nH]c3ccccc13)[C@@](C(=O)OC)(c1cc3c(cc1OC)N(C)[C@H]1[C@@](O)(C(=O)OC)[C@H](OC(C)=O)[C@]4(CC)C=CCN5CC[C@]31[C@@H]54)C2 | 0.0055 µM
79 | C[C@]12CC[C@@H]3c4ccc(O)cc4CC[C@H]3[C@@H]1CC[C@@H]2OC(=O)CCC1CCCC1 | 6.37 µM (inactive)
80 | O=C1c2c(O)ccc(O)c2C(=O)c2c(NCCNCCO)ccc(NCCNCCO)c21 | 0.0044 µM
81 | Cc1ccc2c(Br)cc(Br)c(O)c2n1 | > 10 µM (inactive)
82 | CCOC(=O)NC(C)(C)Cc1ccc(Cl)cc1 | > 10 µM (inactive)
83 | Cc1cc(OCCOCC[N+](C)(C)Cc2ccccc2)ccc1C(C)(C)CC(C)(C)C | > 10 µM (inactive)
84 | CC[C@]12CCCN3CCc4c(n(c5ccccc45)C(=O)C1)[C@@H]32 | > 10 µM (inactive)
85 | O=C(OCc1ccccc1)c1cccnc1 | > 10 µM (inactive)
86 | NC(=O)[C@@H]1CSSCCC(=O)N[C@@H](CCCCN=C(N)N)C(=O)NCC(=O)N[C@@H](CC(=O)O)C(=O)N[C@@H](Cc2c[nH]c3ccccc23)C(=O)N2CCC[C@H]2C(=O)N1 (HELM PEPTIDE1{[O=C(CCS[*:3])[*:2]].[N=C(N)NCCCC[C@H](N[*:1])C(=O)[*:2]].G.D.W.P.C.[am]}$PEPTIDE1,PEPTIDE1,1:R3-7:R3$$$V2.0) | > 10 µM (inactive)
87 | CC[C@]1(O)CC[C@H]2[C@@H]3CCC4=CCCC[C@@H]4[C@H]3CC[C@@]21C | 6.25 µM (inactive)
88 | CCCCC(CC)COC(=O)C(C#N)=C(c1ccccc1)c1ccccc1 (stereo not given) | > 10 µM (inactive)
89 | CNS(=O)(=O)CCc1ccc2[nH]cc(C3CCN(C)CC3)c2c1 | > 10 µM (inactive)
90 | O=c1[nH]c(=O)n([C@H]2C[C@H](O)[C@@H](CO)O2)cc1F | 0.0216 µM
